From patent US11357752B2, “Carolacton and derivatives thereof for use in the treatment of cell proliferation disorders” (Helmholtz-Zentrum für Infektionsforschung GmbH, priority 2017, dated 2022)
pKd: −log10 of the molar value. Entries after “also recorded” stand apart in the source; their conditions may differ.

Assays:
Assay in all cases: Surface plasmon resonance assay
Format in all cases: binding, E. coli
[1] = target: T1, ecFoID (Escherichia coli, UniProt P24186)
T1 construct: His-tag (vector pHis-TEV); made in house; host or cells: E. coli BL21 (DE3)
Method: (§1) All surface plasmon resonance (SPR) experiments described in this study were performed on a Biacore X100 system. Different FoIDs with or without His-tag were coupled on CM5 sensor chips (GE Healthcare) by the amine coupling method using a kit from GE Healthcare Life Sciences (Freiburg, Germany). A pH scouting process was performed before protein immobilization to test the most appropriate buffer and the protein concentration for protein coupling. Finally, 20 μg/mL of ecFoID in 10 mM maleate buffer (pH 6.8), 30 μg/mL of ecFoID Q98H in 10 mM maleate buffer (pH 6.3), 40 μg/mL of ecFoID K54N in 10 mM maleate buffer (pH 5.8), 20 μg/mL of spFoID in 10 mM maleate buffer (pH 6.0) and 15 μg/mL of MTHFD2 (His-tag cleaved) in 10 mM maleate buffer (pH 6.8) were used for coupling. In the protein immobilization procedure, the contact time was calculated based on the pH scouting results to achieve -3000-5000 relative resonance units (RU). The buffer used in the SPR assays was 1×HBS-P buffer (10 mM HEPES pH 7.4, 150 mM NaCl, 0.05% Tween 20). The 1 mM stock solution of carolacton was prepared in 1×HBS-P buffer and diluted to different concentration ranges by two-fold serial dilution. In the SPR assay, the association time was 180 s and the dissociation time was 600 s. Data analysis was performed using the Biacore evaluation software. The SPR curves were exported to be re-plotted in OriginPro 2016 (OriginLab, Northampton, Mass., US).

[2] = target: T2, ecFoID K54N (Escherichia coli, UniProt P24186, K54N)
T2 construct: made in house; host or cells: E. coli BL21 (DE3)
Method: as §1

[3] = target: T3, ecFoID Q98H (Escherichia coli, UniProt P24186, Q98H)
T3 construct: made in house; host or cells: E. coli BL21 (DE3)
Method: as §1

**Q.** `CO[C@H](CC(=O)O)[C@@H](C)C(=O)[C@H](C)/C=C(\C)[C@H]1OC(=O)[C@H](O)[C@H](O)/C=C/[C@H](C)CCC[C@@H]1C` [Carolacton, carolacton] was tested. Which pKd [1] did it give?
**A.** 8.00

**Q.** What about the “binding (SPR), in words” value [2] of the same compound?
**A.** no binding; also recorded: does not bind

**Q.** What about the pKd [3] of the same compound?
**A.** 4.70

**Q.** What about the “binding (SPR), in words” value ([3]; ecFoID Q98H) of the same compound?
**A.** weak binding
